Results reported in patent publication US7576175B2, “Alpha-4 beta-1 integrin ligands for imaging and therapy” (The Regents of the University of California, priority 2004, dated 2009).
Where two headings read alike, the source gives them in different places. Numbered stars: 1 amine (or outer) side, 2 acyl side, 3 side chain; on linkers, the order of the positions; unused ones are H or OH. Square brackets hold non-standard residues; d marks the D form. Peptide text beside a SMILES is read from it. * marks the point of attachment. Acryloyl(3-(3-pyridyl),E) = O=C(/C=C/c1cccnc1)*; dBpa = N[C@H](Cc1ccc(C(=O)c2ccccc2)cc1)C(=O)O; d2Nal = N[C@H](Cc1ccc2ccccc2c1)C(=O)O; Ala(cPr) = N[C@@H](CC1CC1)C(=O)O; Hyp = O=C(O)[C@@H]1C[C@@H](O)CN1; X1 = O=C(Cc1ccc(N[*:1])cc1)[*:2]; d3Pal = N[C@H](Cc1cccnc1)C(=O)O; Aad = N[C@@H](CCCC(=O)O)C(=O)O; Cha = N[C@@H](CC1CCCCC1)C(=O)O; NH(2-Me-phenyl) = Cc1ccccc1N*; Chg = N[C@H](C(=O)O)C1CCCCC1; Nle = CCCC[C@H](N)C(=O)O; Ac5c = NC1(C(=O)O)CCCC1; Ac3c = NC1(C(=O)O)CC1; CO = O=C([*:1])[*:2]

Assays:
α4β1 integrin [1] = target: T1, α4β1 integrin (Homo sapiens, UniProt P05556+P13612); assay: Cell-based α4β1-mediated adhesion assay: inhibition of Jurkat cell adhesion to immobilized CS-1 peptide (IC50)
T1 construct: screened against live Jurkat cells (α4β1 integrin-positive); endogenous in cells; host or cells: Jurkat T-leukemia cells

α4β1 integrin [2] = target: T1, α4β1 integrin; assay: Bead-binding inhibition assay: soluble ligand inhibits binding of Jurkat cells to BIO-1211-containing beads; assay type: cell-based; settings: for binding affinity for α4β1 integrin in the bead-binding inhibition assay: soluble ligand vs BIO-1211-containing beads, Jurkat cells
Description: To this end, the bead library was screened using Jurkat cells in the presence of BIO-1211.
This library was screened using a competitive cell-based screening method with high stringency so that only those ligands with very high affinity to α4β1 integrin are coated by a layer of lymphoma cells (FIG. 2). To achieve this, an increasing amount of known α4β1 antagonist was incorporated into the screening solution, which competed with the interaction between cell surface α4β1 integrin and the immobilized library compounds on the bead surface, until a limited number of positive beads were detected in the library. […] Twenty beads were isolated under these high stringency conditions. Guanidine HCl (8 M) was used to strip the beads of all cells and proteins. The recovered beads were then retested with normal peripheral blood lymphocytes. Beads that bound preferentially to Jurkat cells but not to normal lymphocytes were sequenced. A total of twelve true positive beads were isolated and decoded, which represented 6 independent ligands. All of the identified ligands have the following structure:
The bead-binding inhibition assay was performed using the soluble ligand to inhibit the binding of Jurkat cells to the BIO-1211-containing beads.

[3] = Jurkat cell adhesion to CS-1 peptide, re-synthesized ligands of Tables 18 and 19, read-out: IC50

T1 sequence (P13612 34-1032): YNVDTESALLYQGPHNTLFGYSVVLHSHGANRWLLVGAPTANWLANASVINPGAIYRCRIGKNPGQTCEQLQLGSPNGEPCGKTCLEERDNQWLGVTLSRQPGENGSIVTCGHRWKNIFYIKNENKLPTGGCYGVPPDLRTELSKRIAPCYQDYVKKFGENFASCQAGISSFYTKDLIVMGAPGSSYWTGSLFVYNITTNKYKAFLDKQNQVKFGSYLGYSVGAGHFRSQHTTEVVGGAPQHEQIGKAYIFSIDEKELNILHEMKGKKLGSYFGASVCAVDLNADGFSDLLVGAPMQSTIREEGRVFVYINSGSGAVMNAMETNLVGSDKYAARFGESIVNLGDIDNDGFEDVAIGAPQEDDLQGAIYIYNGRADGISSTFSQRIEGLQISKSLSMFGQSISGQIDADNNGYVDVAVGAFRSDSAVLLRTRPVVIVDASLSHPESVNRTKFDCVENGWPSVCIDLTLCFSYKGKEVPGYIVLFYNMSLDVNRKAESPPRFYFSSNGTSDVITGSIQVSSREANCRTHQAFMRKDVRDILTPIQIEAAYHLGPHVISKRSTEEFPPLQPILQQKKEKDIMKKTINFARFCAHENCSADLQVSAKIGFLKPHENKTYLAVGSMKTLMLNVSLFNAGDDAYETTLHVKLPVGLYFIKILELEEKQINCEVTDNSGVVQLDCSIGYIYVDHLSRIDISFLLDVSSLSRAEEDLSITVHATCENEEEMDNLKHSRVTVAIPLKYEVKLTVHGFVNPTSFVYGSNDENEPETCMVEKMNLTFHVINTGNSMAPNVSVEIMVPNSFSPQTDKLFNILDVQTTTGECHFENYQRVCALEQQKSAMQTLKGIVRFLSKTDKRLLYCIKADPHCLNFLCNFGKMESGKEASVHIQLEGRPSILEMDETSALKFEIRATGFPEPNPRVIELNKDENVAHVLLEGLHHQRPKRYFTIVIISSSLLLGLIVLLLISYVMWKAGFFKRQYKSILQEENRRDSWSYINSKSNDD
T1 sequence (P05556 21-798): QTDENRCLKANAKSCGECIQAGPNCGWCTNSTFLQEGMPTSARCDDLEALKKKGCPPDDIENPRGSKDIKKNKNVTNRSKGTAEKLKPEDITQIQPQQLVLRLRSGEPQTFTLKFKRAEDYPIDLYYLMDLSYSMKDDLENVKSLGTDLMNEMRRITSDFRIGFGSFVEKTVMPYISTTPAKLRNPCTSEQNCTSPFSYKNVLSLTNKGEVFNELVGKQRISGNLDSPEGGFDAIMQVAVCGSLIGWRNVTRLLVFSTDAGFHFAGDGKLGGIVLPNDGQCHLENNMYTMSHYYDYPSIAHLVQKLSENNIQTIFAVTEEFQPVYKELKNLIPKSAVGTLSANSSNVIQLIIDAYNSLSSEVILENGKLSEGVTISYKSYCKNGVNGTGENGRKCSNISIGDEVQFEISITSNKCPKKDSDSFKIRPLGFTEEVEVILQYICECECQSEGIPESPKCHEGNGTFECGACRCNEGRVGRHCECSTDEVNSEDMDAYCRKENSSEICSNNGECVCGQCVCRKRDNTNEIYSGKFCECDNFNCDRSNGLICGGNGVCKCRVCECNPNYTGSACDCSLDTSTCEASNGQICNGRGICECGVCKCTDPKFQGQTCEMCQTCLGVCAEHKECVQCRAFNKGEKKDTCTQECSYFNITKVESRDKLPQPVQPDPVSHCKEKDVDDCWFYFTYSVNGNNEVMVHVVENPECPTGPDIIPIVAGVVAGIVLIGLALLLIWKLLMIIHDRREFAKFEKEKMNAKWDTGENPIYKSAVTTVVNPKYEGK

Row | SMILES | IC50 (α4β1 integrin [1]) [nM] | IC50 (α4β1 integrin [1]; [3]) [nM] | other results
1 | CCCC[C@H](NC(=O)Cc1ccc(NC(=O)Nc2ccccc2C)cc1)C(=O)N[C@@H](CCCC(=O)O)C(=O)N[C@H](C(=O)N1C[C@H](O)C[C@H]1C(=O)N[C@@H](CCCC(=O)O)C(N)=O)C1CCCCC1 [9A] ({NH(2-Me-phenyl)-CO}-[X1][Nle][Aad][Chg][Hyp][Aad]-NH2) | 1.45 | – | –
2 | CCCC[C@H](NC(=O)Cc1ccc(NC(=O)Nc2ccccc2C)cc1)C(=O)N[C@@H](CCCC(=O)O)C(=O)N[C@@H](CC1CCCCC1)C(=O)N[C@H](CCC(=O)O)C(N)=O [8A] ({NH(2-Me-phenyl)-CO}-[X1][Nle][Aad][Cha][dE]-NH2) | 0.75 | – | –
3 | Cc1ccccc1NC(=O)Nc1ccc(C(C)C(=O)N[C@@H](CCCCNC(=O)/C=C/c2cccnc2)C(=O)N[C@@H](CCCC(=O)O)C(=O)NC2(C(N)=O)CCCCC2)cc1 (stereo partly drawn) [2B] | – | 9.5 | –
4 | Cc1ccccc1NC(=O)Nc1ccc(CC(=O)N[C@@H](CCCCNC(=O)/C=C/c2cccnc2)C(=O)N[C@@H](CCCC(=O)O)C(=O)N[C@H](Cc2ccccc2)C(=O)N[C@H](Cc2cccnc2)C(N)=O)cc1 [7A] ({NH(2-Me-phenyl)-CO}-[X1]K(Acryloyl(3-(3-pyridyl),E))[Aad][dF][d3Pal]-NH2) | 4 | – | –
5 | Cc1ccccc1NC(=O)Nc1ccc(CC(=O)N[C@@H](CCCCNC(=O)/C=C/c2cccnc2)C(=O)N[C@@H](CCCC(=O)O)C(=O)N[C@H](C(N)=O)C(C)C)cc1 [15A] | – | 0.2 | –
6 | Cc1ccccc1NC(=O)Nc1ccc(CC(=O)N[C@@H](CC2CC2)C(=O)N[C@@H](CCCC(=O)O)C(=O)N[C@H](C(=O)NC2(C(=O)N[C@H](CC(=O)O)C(=O)N[C@H](CCC(=O)O)C(N)=O)CCCC2)C2CCCCC2)cc1 [10A] ({NH(2-Me-phenyl)-CO}-[X1][Ala(cPr)][Aad][Chg][Ac5c][dD][dE]-NH2) | 0.53 | – | –
7 | Cc1ccccc1NC(=O)Nc1ccc(CC(=O)N[C@@H](CCCCNC(=O)/C=C/c2cccnc2)C(=O)N[C@@H](CCCC(=O)O)C(=O)N[C@H](Cc2ccccc2)C(=O)O)cc1 [12A] | – | 0.4 | –
8 | Cc1ccccc1NC(=O)Nc1ccc(CC(=O)N[C@@H](CCCCNC(=O)/C=C/c2cccnc2)C(=O)N[C@@H](CCCC(=O)O)C(=O)NC2(C(=O)N[C@H](CC(=O)O)C(N)=O)CC2)cc1 [3A] ({NH(2-Me-phenyl)-CO}-[X1]K(Acryloyl(3-(3-pyridyl),E))[Aad][Ac3c][dD]-NH2) | 0.5 | – | binding affinity for α4β1 integrin in the bead-binding inhibition assay (α4β1 integrin [2]): highest binding affinities
9 | Cc1ccccc1NC(=O)Nc1ccc(CC(=O)N[C@@H](CCCCNC(=O)/C=C/c2cccnc2)C(=O)N[C@@H](CCCC(=O)O)C(=O)N[C@H](Cc2ccccc2)C(N)=O)cc1 [1A] | – | 0.022 | –
10 | Cc1ccccc1NC(=O)Nc1ccc(CC(=O)N[C@@H](CCCCNC(=O)/C=C/c2cccnc2)C(=O)N[C@@H](CCCC(=O)O)C(=O)NC2(C(N)=O)CCCCC2)cc1 [2A] | – | – | binding affinity for α4β1 integrin in the bead-binding inhibition assay (α4β1 integrin [2]): highest binding affinities
11 | Cc1ccccc1NC(=O)Nc1ccc(CC(=O)N[C@@H](CCCCNC(=O)/C=C/c2cccnc2)C(=O)N[C@@H](CCCC(=O)O)C(=O)N[C@@H](C(N)=O)C(C)C)cc1 [16A] | – | 0.2 | –
12 | Cc1ccccc1NC(=O)Nc1ccc(CC(=O)N[C@@H](CCCCNC(=O)/C=C/c2cccnc2)C(=O)N[C@@H](CCCC(=O)O)C(=O)N[C@@H](Cc2ccccc2)C(N)=O)cc1 [14A] | 0.2 | – | –
13 | Cc1ccccc1NC(=O)Nc1ccc(CC(=O)N[C@@H](CCCCNC(=O)/C=C/c2cccnc2)C(=O)N[C@@H](CCCC(=O)O)C(=O)N[C@H](Cc2ccccc2)C(=O)N[C@H](CC(=O)O)C(N)=O)cc1 [4A] ({NH(2-Me-phenyl)-CO}-[X1]K(Acryloyl(3-(3-pyridyl),E))[Aad][dF][dD]-NH2) | 0.4 | – | concentration inhibiting binding of Jurkat cells to BIO-1211-containing beads, compared with BIO-1211 (α4β1 integrin [2]; overnight incubation, FIG. 7): significantly lower concentration than BIO-1211; binding affinity for α4β1 integrin in the bead-binding inhibition assay (α4β1 integrin [2]): highest binding affinities
14 | Cc1ccccc1NC(=O)Nc1ccc(C(C)C(=O)N[C@@H](CCCCNC(=O)/C=C/c2cccnc2)C(=O)N[C@@H](CCCC(=O)O)C(=O)N[C@H](Cc2ccccc2)C(N)=O)cc1 (stereo partly drawn) [1B] | – | 8.9 | –
15 | Cc1ccccc1NC(=O)Nc1ccc(CC(=O)N[C@@H](CCCCNC(=O)/C=C/c2cccnc2)C(=O)N[C@@H](CCCC(=O)O)C(=O)N[C@H](Cc2ccc3ccccc3c2)C(=O)N[C@@H](C(=O)N[C@H](Cc2ccc(C(=O)c3ccccc3)cc2)C(N)=O)[C@H](C)O)cc1 [11A] ({NH(2-Me-phenyl)-CO}-[X1]K(Acryloyl(3-(3-pyridyl),E))[Aad][d2Nal][dT][dBpa]-NH2) | 77.5 | – | –
